Assays:
[1] = test system: P. argentipes 1st instar larvae; assay: Larval bioassay with feces of insecticide treated R. rattus (feed through); format: in vivo; conditions: for Mean ± SEM survival (days) of P. arg larvae post-exposure / P. argentipes larvae mortality (%): feces of R. rattus day-1 post treatment
Procedure: In the first study, a feed through study comparing diflubenzuron, fipronil, ivermectin, and eprinomectin was conducted on rats (Rattus rattus). Fecal samples were collected after three (3) consecutive days of administration of the trial products. The efficacy of the drugs administered during the blind study underwent testing in larval bioassays with P. argentipes 1st instar larvae. Commercially available chicken feed was mixed with the appropriate concentrations of each insecticide compound and used as is in the trial.
Twelve (12) locally purchased rats (Rattus rattus) of mixed sex were utilized in a small study testing the efficacy of four feed through insecticides. Five treatment groups of two rats each were randomly identified and fed diets consisting of locally available chicken feed treated with one of the following compounds: diflubenzuron (0.048%), fipronil (0.015%), ivermectin (0.025%), and eprinomectin (0.01% and 0.025%). Two rats served as control and were fed only chicken feed. Rats were fed 20 g of their assigned diet daily at the same time, with daily consumption and spillage calculated for a period of three (3) days. Sand fly analyses were conducted simultaneously.
[…] Collected feces were dried at approximately 40° C. in an oven then ground into a fine powder utilizing a pestle and mortar and frozen at −20° C. until larval bioassays were initiated.
Larval bioassay pots were prepared using 48 mm, 100 g round Dibbi jars. Dishes were prepared by burning several small holes into the bottom of the dish with a soldering iron and filling them with a small layer of plaster (¼ to ½ inch depth). Approximately 15-20 holes were punctured into the lids using 24 gauge needles. For simpler mortality counting, pots were quartered and each quadrant numbered using an ultra fine black Sharpie.
For each individual post-treatment bioassays, thirteen (13) dishes were loaded with 10 day old 1st instar P. argentipes larvae; twelve (12) pots were provided with approximately 0.005 g of the treated feces, with two sample pots per treated bandicoot rat, and one overall control sample fed only standard larval diet. See Table 1 for sample/treatment correlations. Larvae were loaded into bioassay pots and provided with their designated treatment sample. Mortality counts of larvae were conducted every 24 hours post-treatment until 100% mortality, or pupation, was reached.

P. papatasi larvae = assay: Larval bioassay with feces of sand rats fed imidacloprid diet; format: in vivo
Procedure: A second trial was carried out using sand rats (Psammomys obesus) as the carrier of sand flies (P. papatasi) and imidacloprid as the insecticide. This rodent species was targeted since it serves as the source of blood meals for adult sand flies and its feces serves as a platform for larval development in Middle East ecosystems.
(§1) The test insecticide, imidacloprid at 250 ppm (0.025%) was incorporated into the feed together with orange, yellow, or green dye and fed to rats housed in standard laboratory caging. The treatment groups consisted of 6 males and 9 females; Controls: 3 males and 4 females with a body weight between 125-250 g.
(§2) DESIGN—Five sand rats were provided the reformulated diet for each of the treatment levels (50 ppm, 100 ppm, 250 ppm). Five sand rats were provided with control diets without imidacloprid. Two additional rats were provided with control diets containing green dye.
(§3) Feces were collected from the Alpha-Dri bedding for the last 5 days of the 7 day treatment period. Feces were weighed and transferred to a plastic bag labeled with the animal's cage identification number and stored frozen at −20° C.
Bioassays of the larval groups comprised: four imidacloprid treatments (0, 50, 100, 250 ppm) (number of replicates per assay n=5), one control group (n=8), and one green dye treatment (n=2). These bioassays were conducted with 1st and 2-3rd instar larvae and were repeated three times. Bioassays were conducted in 6 well culture plates (Corning, Inc) with 5 ml of plaster of Paris in the bottom of each well. The plaster was saturated with distilled water before the experiment, and was blotted with filter paper to remove standing water immediately before use. The effect of imidacloprid treatment on 1st and 2nd-3rd instar larvae was tested. The control group was provided using standard larval diet. This allowed comparison of sand fly survival between those feeding on feces from sand rats that fed on non treated feed and those fed on standard sand fly diet. First instar larvae were obtained by adding 50 eggs to each well and allowed to hatch and fed on regular diet for 2-3 days. At this time ca. 0.1 g of crushed pellets or control feed was added. Second-3rd instar larvae were obtained by letting 1st instar larvae grow on standard diet in the wells until moulted. At this, time crushed pellets or control feed (0.1 g) was added. […] The wells of the plate were covered with parafilm which was punctured with a needle to allow for ventilation. The wells were kept in a humidified room (26° C./75% RH) inside a covered tube which contained a saturated sponge. The container was placed in an environmental chamber at 28 C, 90% RH, and a photoperiod of 14:10 (L:D) h. […] Alimentation was noted by observation of the presence of frass in the vials and dark material in the guts of the larvae.

[2] = cited from earlier work
[3] = Acceptance and tolerance of imidacloprid diet by sand rats; format: in vivo, Psammomys obesus
From the text: as §1, §2, §3

O=C(NC(=O)c1c(F)cccc1F)Nc1ccc(Cl)cc1 [diflubenzuron]
Mean ± SEM survival (days) of P. arg larvae post-exposure ([1]; 480 ppm): 9.75 ± 0.71 days | P. argentipes larvae mortality (%) ([1]; 480 ppm): 100%

ivermectin
Mean ± SEM survival (days) of P. arg larvae post-exposure ([1]; 250 ppm): 7.40 ± 0.11 days | P. argentipes larvae mortality (%) ([1]; 250 ppm): 100% | Day of observation by which 100% larval mortality was reached ([1]; feces of R. rattus fed 0.025% in feed): ≤ 8 days

O=[N+]([O-])NC1=NCCN1Cc1ccc(Cl)nc1 [imidacloprid]
Survivorship for 1st instar larvae (P. papatasi larvae; by day 5, feces from sand rats administered 100 ppm): < 5% | Survivorship for 1st instar larvae (P. papatasi larvae; by day 5, feces from sand rats administered 250 ppm): < 5% | Survivorship for 2nd/3rd instar larvae (P. papatasi larvae; by day 7, feces from sand rats administered 250 ppm): 10% | Larval mortality (P. papatasi larvae; by seven days, feces from diets containing 250 ppm): 90% | Larvicidal effect of feces for 1st instar larvae (P. papatasi larvae; sand rats fed diets of 100 ppm and 250 ppm): rapidly and highly larvicidal | Residue in blood ([2]; three days post oral treatment): zero residue | Difference in fecal production between treatment groups ([3]; P=0.1199): no significant difference | Health of sand rats on diet ([3]; diets 50, 100, 250 ppm, 7 day treatment): without any apparent health abnormalities

CC1(C)C(C=C(Cl)Cl)C1C(=O)OCc1cccc(Oc2ccccc2)c1 (stereo not shown) [permethrin]
Time within which the majority of the product is excreted ([2]; rodents, oral treatment): ≤ 48 h | Absorption by the skin ([2]; topical): not readily absorbed by the skin

eprinomectin
Mean ± SEM survival (days) of P. arg larvae post-exposure ([1]; 100 ppm): 12.65 ± 0.70 days | P. argentipes larvae mortality (%) ([1]; 100 ppm): 100% | Mean ± SEM survival (days) of P. arg larvae post-exposure ([1]; 250 ppm): 10.70 ± 0.38 days | P. argentipes larvae mortality (%) ([1]; 250 ppm): 100%
